The supplement of paper PMC10132981, “Formate overflow drives toxic folate trapping in MTHFD1 inhibited cancer cells” (Nature Metabolism, 2023)

Tested on: SW620
Assay: cell viability relative to vehicle (resazurin, 96 h); higher = more viable
Procedure: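 SW620 WT or MTHFD2-/- cells were treated for 96 h with a compound dilution series (log10 M) in RPMI with normal or dialysed FBS. Viability was read by resazurin and is given as % of vehicle.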

CN(Cc1cnc2nc(N)nc(N)c2n1)c1ccc(C(=O)N[C@@H](CCC(=O)O)C(=O)O)cc1 [methotrexate]
Conditions	cell viability [%]
log10 compound concentration (M): -5, supplement / serum: Hypoxanthine + AICAr 10μM, base medium: RPMI + dialysed FBS	5.12
log10 compound concentration (M): -5, supplement / serum: Hypoxanthine + AICAr 30μM, base medium: RPMI + dialysed FBS	4.87
log10 compound concentration (M): -5, supplement / serum: Hypoxanthine + AICAr 50μM, base medium: RPMI + dialysed FBS	5.34
log10 compound concentration (M): -5, supplement / serum: Hypoxanthine + AICAr 100μM, base medium: RPMI + dialysed FBS	5.12
log10 compound concentration (M): -5, supplement / serum: Hypoxanthine, base medium: RPMI + dialysed FBS	4.67
log10 compound concentration (M): -5, supplement / serum: RPMI + Dialyzed FBS + 50μM Hypoxanthine, base medium: RPMI-1640	6.47
log10 compound concentration (M): -5, supplement / serum: RPMI + Dialyzed FBS, base medium: RPMI-1640	5.07
log10 compound concentration (M): -5, supplement / serum: RPMI + Normal FBS, base medium: RPMI-1640	19.1
log10 compound concentration (M): -5, supplement / serum: Vehicle, base medium: RPMI + dialysed FBS	4.01
log10 compound concentration (M): -5.47712, supplement / serum: Hypoxanthine + AICAr 10μM, base medium: RPMI + dialysed FBS	5.68
log10 compound concentration (M): -5.47712, supplement / serum: Hypoxanthine + AICAr 30μM, base medium: RPMI + dialysed FBS	4.86
log10 compound concentration (M): -5.47712, supplement / serum: Hypoxanthine + AICAr 50μM, base medium: RPMI + dialysed FBS	6.17
log10 compound concentration (M): -5.47712, supplement / serum: Hypoxanthine + AICAr 100μM, base medium: RPMI + dialysed FBS	5.44
log10 compound concentration (M): -5.47712, supplement / serum: Hypoxanthine, base medium: RPMI + dialysed FBS	5.19
log10 compound concentration (M): -5.47712, supplement / serum: RPMI + Dialyzed FBS + 50μM Hypoxanthine, base medium: RPMI-1640	7.16
log10 compound concentration (M): -5.47712, supplement / serum: RPMI + Dialyzed FBS, base medium: RPMI-1640	5.32
log10 compound concentration (M): -5.47712, supplement / serum: RPMI + Normal FBS, base medium: RPMI-1640	22.3
log10 compound concentration (M): -5.47712, supplement / serum: Vehicle, base medium: RPMI + dialysed FBS	3.96
log10 compound concentration (M): -5.95424, supplement / serum: Hypoxanthine + AICAr 10μM, base medium: RPMI + dialysed FBS	6.05
log10 compound concentration (M): -5.95424, supplement / serum: Hypoxanthine + AICAr 30μM, base medium: RPMI + dialysed FBS	4.88
log10 compound concentration (M): -5.95424, supplement / serum: Hypoxanthine + AICAr 50μM, base medium: RPMI + dialysed FBS	6.61
log10 compound concentration (M): -5.95424, supplement / serum: Hypoxanthine + AICAr 100μM, base medium: RPMI + dialysed FBS	6.46
log10 compound concentration (M): -5.95424, supplement / serum: Hypoxanthine, base medium: RPMI + dialysed FBS	4.87
log10 compound concentration (M): -5.95424, supplement / serum: RPMI + Dialyzed FBS + 50μM Hypoxanthine, base medium: RPMI-1640	7.47
log10 compound concentration (M): -5.95424, supplement / serum: RPMI + Dialyzed FBS, base medium: RPMI-1640	5.35
log10 compound concentration (M): -5.95424, supplement / serum: RPMI + Normal FBS, base medium: RPMI-1640	14.7
log10 compound concentration (M): -5.95424, supplement / serum: Vehicle, base medium: RPMI + dialysed FBS	4.17
log10 compound concentration (M): -6.43136, supplement / serum: Hypoxanthine + AICAr 10μM, base medium: RPMI + dialysed FBS	6.29
log10 compound concentration (M): -6.43136, supplement / serum: Hypoxanthine + AICAr 30μM, base medium: RPMI + dialysed FBS	5.47
log10 compound concentration (M): -6.43136, supplement / serum: Hypoxanthine + AICAr 50μM, base medium: RPMI + dialysed FBS	7.05
log10 compound concentration (M): -6.43136, supplement / serum: Hypoxanthine + AICAr 100μM, base medium: RPMI + dialysed FBS	6.81
log10 compound concentration (M): -6.43136, supplement / serum: Hypoxanthine, base medium: RPMI + dialysed FBS	5.56
log10 compound concentration (M): -6.43136, supplement / serum: RPMI + Dialyzed FBS + 50μM Hypoxanthine, base medium: RPMI-1640	7.77
log10 compound concentration (M): -6.43136, supplement / serum: RPMI + Dialyzed FBS, base medium: RPMI-1640	4.63
log10 compound concentration (M): -6.43136, supplement / serum: RPMI + Normal FBS, base medium: RPMI-1640	17
log10 compound concentration (M): -6.43136, supplement / serum: Vehicle, base medium: RPMI + dialysed FBS	4.16
log10 compound concentration (M): -6.90849, supplement / serum: Hypoxanthine + AICAr 10μM, base medium: RPMI + dialysed FBS	7.03
log10 compound concentration (M): -6.90849, supplement / serum: Hypoxanthine + AICAr 30μM, base medium: RPMI + dialysed FBS	5.61
log10 compound concentration (M): -6.90849, supplement / serum: Hypoxanthine + AICAr 50μM, base medium: RPMI + dialysed FBS	6.93
log10 compound concentration (M): -6.90849, supplement / serum: Hypoxanthine + AICAr 100μM, base medium: RPMI + dialysed FBS	6.51
log10 compound concentration (M): -6.90849, supplement / serum: Hypoxanthine, base medium: RPMI + dialysed FBS	5.78
log10 compound concentration (M): -6.90849, supplement / serum: RPMI + Dialyzed FBS + 50μM Hypoxanthine, base medium: RPMI-1640	8.66
log10 compound concentration (M): -6.90849, supplement / serum: RPMI + Dialyzed FBS, base medium: RPMI-1640	5.1
log10 compound concentration (M): -6.90849, supplement / serum: RPMI + Normal FBS, base medium: RPMI-1640	20.5
log10 compound concentration (M): -6.90849, supplement / serum: Vehicle, base medium: RPMI + dialysed FBS	4.6
log10 compound concentration (M): -7.38561, supplement / serum: Hypoxanthine + AICAr 10μM, base medium: RPMI + dialysed FBS	15.3
log10 compound concentration (M): -7.38561, supplement / serum: Hypoxanthine + AICAr 30μM, base medium: RPMI + dialysed FBS	7.88
log10 compound concentration (M): -7.38561, supplement / serum: Hypoxanthine + AICAr 50μM, base medium: RPMI + dialysed FBS	10.8
log10 compound concentration (M): -7.38561, supplement / serum: Hypoxanthine + AICAr 100μM, base medium: RPMI + dialysed FBS	9.102
log10 compound concentration (M): -7.38561, supplement / serum: Hypoxanthine, base medium: RPMI + dialysed FBS	14.7
log10 compound concentration (M): -7.38561, supplement / serum: RPMI + Dialyzed FBS + 50μM Hypoxanthine, base medium: RPMI-1640	24.7
log10 compound concentration (M): -7.38561, supplement / serum: RPMI + Dialyzed FBS, base medium: RPMI-1640	5.71
log10 compound concentration (M): -7.38561, supplement / serum: RPMI + Normal FBS, base medium: RPMI-1640	42.8
log10 compound concentration (M): -7.38561, supplement / serum: Vehicle, base medium: RPMI + dialysed FBS	4.77
log10 compound concentration (M): -7.86273, supplement / serum: Hypoxanthine + AICAr 10μM, base medium: RPMI + dialysed FBS	103
log10 compound concentration (M): -7.86273, supplement / serum: Hypoxanthine + AICAr 30μM, base medium: RPMI + dialysed FBS	75.9
log10 compound concentration (M): -7.86273, supplement / serum: Hypoxanthine + AICAr 50μM, base medium: RPMI + dialysed FBS	65.1
log10 compound concentration (M): -7.86273, supplement / serum: Hypoxanthine + AICAr 100μM, base medium: RPMI + dialysed FBS	39.1
log10 compound concentration (M): -7.86273, supplement / serum: Hypoxanthine, base medium: RPMI + dialysed FBS	92.6
log10 compound concentration (M): -7.86273, supplement / serum: RPMI + Dialyzed FBS + 50μM Hypoxanthine, base medium: RPMI-1640	85
log10 compound concentration (M): -7.86273, supplement / serum: RPMI + Dialyzed FBS, base medium: RPMI-1640	15.5
log10 compound concentration (M): -7.86273, supplement / serum: RPMI + Normal FBS, base medium: RPMI-1640	53.8
log10 compound concentration (M): -7.86273, supplement / serum: Vehicle, base medium: RPMI + dialysed FBS	10.7
log10 compound concentration (M): -8.33985, supplement / serum: Hypoxanthine + AICAr 10μM, base medium: RPMI + dialysed FBS	117
log10 compound concentration (M): -8.33985, supplement / serum: Hypoxanthine + AICAr 30μM, base medium: RPMI + dialysed FBS	93.6
log10 compound concentration (M): -8.33985, supplement / serum: Hypoxanthine + AICAr 50μM, base medium: RPMI + dialysed FBS	119.7
log10 compound concentration (M): -8.33985, supplement / serum: Hypoxanthine + AICAr 100μM, base medium: RPMI + dialysed FBS	92.9
log10 compound concentration (M): -8.33985, supplement / serum: Hypoxanthine, base medium: RPMI + dialysed FBS	99.3
log10 compound concentration (M): -8.33985, supplement / serum: RPMI + Dialyzed FBS + 50μM Hypoxanthine, base medium: RPMI-1640	99.18
log10 compound concentration (M): -8.33985, supplement / serum: RPMI + Dialyzed FBS, base medium: RPMI-1640	72.4
